Measured values from patent US10954269B2, “Anti-inflammatory tripeptides” (Dr. August Wolff Gmbh & Co. KG Arzneimittel, priority 2013, dated 2021).

Test system: primary murine T-cells
Assay: Cytokine secretion on protein level in activated primary murine T-cells (13-plex FACS / Luminex, supernatant)
Assay type: cell-based, C57BL/6 mice
In short: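 T-cells from secondary lymphatic organs of naïve C57BL/6 mice, stimulated with PMA/Ionomycin or IFN-γ; supernatant cytokines measured by 13-plex FACS 48 h and 72 h after stimulation. In another run, PMA/Ionomycin-stimulated cells received compounds at 10^−7, 10^−9 and 10^−11 M, with IFN-γ, IL-17 and IL-10 measured by Luminex.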

[1] = primary murine T-cells stimulated with IFN-γ, 10^−9M
[2] = primary murine T-cells stimulated with IFN-γ, substance 10^−9M
[3] = primary murine T-cells stimulated with PBS, 10^−9M
[4] = primary murine T-cells stimulated with PBS, substance 10^−9M
[5] = primary murine T-cells stimulated with PMA/Ionomycin, 10^−9M
[6] = primary murine T-cells stimulated with PMA/Ionomycin, 10^−9M, 1:10 dilution of the supernatants
[7] = primary murine T-cells stimulated with PMA/Ionomycin, substance 10^−9M

“alpha-melanocyte-stimulating hormone [α-MSH, reference compound]” showed an IL-1 cytokine concentration [1] of 14.89 pg/mL, an IL-2 cytokine concentration [1] of 0 pg/mL and an IL-4 cytokine concentration [1] of 0 pg/mL. It also gave an IL-5 cytokine concentration [1] of 0 pg/mL, an IL-6 cytokine concentration [1] of 0 pg/mL and an IL-10 cytokine concentration [1] of 0 pg/mL. It also gave an IL-13 cytokine concentration [1] of 0 pg/mL, an IL-17 cytokine concentration [1] of 0 pg/mL and an IL-21 cytokine concentration [1] of 0 pg/mL. It also gave an IL-22 cytokine concentration [1] of 0 pg/mL, an IL-27 cytokine concentration [1] of 0 pg/mL and a TNF-α cytokine concentration [1] of 0 pg/mL. The IL-1 cytokine concentration [2] was 88.22 pg/mL, the IL-2 cytokine concentration [2] was 96.1 pg/mL and the IL-4 cytokine concentration [2] was 20.56 pg/mL. The IL-5 cytokine concentration [2] was 220.39 pg/mL, the IL-6 cytokine concentration [2] was 133.9 pg/mL and the IL-10 cytokine concentration [2] was 1117.07 pg/mL. For the same substance, the IL-13 cytokine concentration [2] was 0 pg/mL, the IL-17 cytokine concentration [2] was 55.11 pg/mL and the IL-21 cytokine concentration [2] was 0 pg/mL. For the same substance, the IL-22 cytokine concentration [2] was 50.6 pg/mL, the IL-27 cytokine concentration [2] was 104.04 pg/mL and the TNF-α cytokine concentration [2] was 36.8 pg/mL. The IFN-γ cytokine concentration [3] was 0 pg/mL, the IL-1 cytokine concentration [3] was 0 pg/mL and the IL-2 cytokine concentration [3] was 0 pg/mL. For the same substance, the IL-4 cytokine concentration [3] was 0 pg/mL, the IL-5 cytokine concentration [3] was 0 pg/mL and the IL-6 cytokine concentration [3] was 16.44 pg/mL. It also gave an IL-10 cytokine concentration [3] of 55.47 pg/mL, an IL-13 cytokine concentration [3] of 0 pg/mL and an IL-17 cytokine concentration [3] of 0 pg/mL. For the same substance, the IL-21 cytokine concentration [3] was 0 pg/mL, the IL-22 cytokine concentration [3] was 0 pg/mL and the IL-27 cytokine concentration [3] was 0 pg/mL. The TNF-α cytokine concentration [3] was 0 pg/mL, the IFN-γ cytokine concentration [4] was 0 pg/mL and the IL-1 cytokine concentration [4] was 58.5 pg/mL. It also gave an IL-2 cytokine concentration [4] of 105.75 pg/mL, an IL-4 cytokine concentration [4] of 62.93 pg/mL and an IL-5 cytokine concentration [4] of 281.14 pg/mL. For the same substance, the IL-6 cytokine concentration [4] was 96.88 pg/mL, the IL-10 cytokine concentration [4] was 1157.87 pg/mL and the IL-13 cytokine concentration [4] was 0 pg/mL. The IL-17 cytokine concentration [4] was 0 pg/mL, the IL-21 cytokine concentration [4] was 0 pg/mL and the IL-22 cytokine concentration [4] was 72.14 pg/mL. It also gave an IL-27 cytokine concentration [4] of 77.41 pg/mL, a TNF-α cytokine concentration [4] of 106.1 pg/mL and an IL-1 cytokine concentration [5] of 28.92 pg/mL. The IL-4 cytokine concentration [5] was 0 pg/mL, the IL-5 cytokine concentration [5] was 262.76 pg/mL and the IL-6 cytokine concentration [5] was 114.47 pg/mL. It also gave an IL-10 cytokine concentration [5] of 276.08 pg/mL, an IL-13 cytokine concentration [5] of 3966.69 pg/mL and an IL-17 cytokine concentration [5] of 311.07 pg/mL. The IL-21 cytokine concentration [5] was 0 pg/mL, the IL-22 cytokine concentration [5] was 356.41 pg/mL and the IL-27 cytokine concentration [5] was 0 pg/mL. The TNF-α cytokine concentration [5] was 535.51 pg/mL, the “IFN-γ* cytokine concentration” value [6] was 0 pg/mL and the “IL-2* cytokine concentration” value [6] was 849.44 pg/mL. It also gave an IFN-γ cytokine concentration [7] of 1458.12 pg/mL, an IL-1 cytokine concentration [7] of 217.32 pg/mL and an IL-2 cytokine concentration [7] of 163.19 pg/mL. The IL-4 cytokine concentration [7] was 91.65 pg/mL, the IL-5 cytokine concentration [7] was 215.44 pg/mL and the IL-6 cytokine concentration [7] was 174.22 pg/mL. For the same substance, the IL-10 cytokine concentration [7] was 1250.21 pg/mL, the IL-13 cytokine concentration [7] was 0 pg/mL and the IL-17 cytokine concentration [7] was 29.47 pg/mL. For the same substance, the IL-21 cytokine concentration [7] was 0 pg/mL, the IL-22 cytokine concentration [7] was 143.37 pg/mL and the IL-27 cytokine concentration [7] was 104.52 pg/mL. It also gave a TNF-α cytokine concentration [7] of 77.76 pg/mL.
